Test results taken from publication PMC8213057, “Targeting ALK2: An Open Science Approach to Developing Therapeutics for the Treatment of Diffuse Intrinsic Pontine Glioma” (Journal of Medicinal Chemistry, 2020).

Legend:
PKG2/PRKG2 = molecular target: T1, PKG2/PRKG2 (Homo sapiens, UniProt Q13237); test: biochemical; conditions: read-out: % enzyme activity, 1 μM; Run 1, Run 2
T1 sequence (Q13237 1-762): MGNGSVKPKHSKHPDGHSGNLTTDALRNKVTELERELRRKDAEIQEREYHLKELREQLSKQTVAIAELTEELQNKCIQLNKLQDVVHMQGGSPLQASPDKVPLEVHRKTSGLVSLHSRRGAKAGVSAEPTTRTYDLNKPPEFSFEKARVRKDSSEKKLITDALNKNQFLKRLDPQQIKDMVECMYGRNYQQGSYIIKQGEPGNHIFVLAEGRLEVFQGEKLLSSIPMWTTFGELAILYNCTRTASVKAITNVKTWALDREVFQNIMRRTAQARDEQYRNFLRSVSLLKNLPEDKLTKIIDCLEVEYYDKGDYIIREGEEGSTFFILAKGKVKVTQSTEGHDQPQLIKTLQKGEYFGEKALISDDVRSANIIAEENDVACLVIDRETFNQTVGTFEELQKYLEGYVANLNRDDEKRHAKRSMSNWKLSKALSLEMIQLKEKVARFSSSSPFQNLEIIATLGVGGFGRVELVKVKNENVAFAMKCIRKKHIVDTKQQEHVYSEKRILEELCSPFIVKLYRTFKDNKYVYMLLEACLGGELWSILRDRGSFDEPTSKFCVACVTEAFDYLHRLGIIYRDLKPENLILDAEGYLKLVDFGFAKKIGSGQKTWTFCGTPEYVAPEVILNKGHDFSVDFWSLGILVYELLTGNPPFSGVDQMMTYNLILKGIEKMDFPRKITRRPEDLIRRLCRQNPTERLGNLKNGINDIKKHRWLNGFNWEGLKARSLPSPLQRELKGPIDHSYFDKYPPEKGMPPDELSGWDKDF

Aurora C = molecular target: T2, Aurora C (Homo sapiens, UniProt Q9UQB9); test: biochemical; conditions: read-out: % enzyme activity, 1 μM; Run 1, Run 2
T2 sequence (Q9UQB9 1-309): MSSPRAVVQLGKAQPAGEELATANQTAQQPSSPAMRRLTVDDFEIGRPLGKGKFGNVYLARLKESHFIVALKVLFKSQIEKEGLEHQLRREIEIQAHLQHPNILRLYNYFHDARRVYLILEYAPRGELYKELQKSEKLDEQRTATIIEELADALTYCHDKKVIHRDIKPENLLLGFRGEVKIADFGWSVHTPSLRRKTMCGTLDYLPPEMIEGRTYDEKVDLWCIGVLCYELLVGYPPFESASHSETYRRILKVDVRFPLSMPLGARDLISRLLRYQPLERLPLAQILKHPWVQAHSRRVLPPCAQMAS

NEK8 = molecular target: T3, NEK8 (Homo sapiens, UniProt Q86SG6); test: biochemical; conditions: read-out: % enzyme activity, 1 μM; Run 1, Run 2
T3 sequence (Q86SG6 1-692): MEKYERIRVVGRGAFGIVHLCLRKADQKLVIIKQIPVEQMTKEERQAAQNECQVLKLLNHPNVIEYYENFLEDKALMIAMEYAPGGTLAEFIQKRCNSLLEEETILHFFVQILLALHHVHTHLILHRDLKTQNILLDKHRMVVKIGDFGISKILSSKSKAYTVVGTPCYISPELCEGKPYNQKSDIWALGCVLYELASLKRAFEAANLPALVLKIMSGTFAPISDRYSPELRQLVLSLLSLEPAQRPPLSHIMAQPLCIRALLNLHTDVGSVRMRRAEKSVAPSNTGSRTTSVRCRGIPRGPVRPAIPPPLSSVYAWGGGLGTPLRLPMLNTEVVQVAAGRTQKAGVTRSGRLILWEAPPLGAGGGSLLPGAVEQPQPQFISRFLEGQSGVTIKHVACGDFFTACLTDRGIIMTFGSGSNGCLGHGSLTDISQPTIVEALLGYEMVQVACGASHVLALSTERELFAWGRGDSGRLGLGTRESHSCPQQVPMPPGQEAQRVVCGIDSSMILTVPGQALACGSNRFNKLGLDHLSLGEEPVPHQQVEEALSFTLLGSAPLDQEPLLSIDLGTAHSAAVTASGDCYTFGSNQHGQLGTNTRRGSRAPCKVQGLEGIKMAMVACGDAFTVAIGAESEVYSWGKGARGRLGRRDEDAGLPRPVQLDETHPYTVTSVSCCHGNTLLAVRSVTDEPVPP

STK21/CIT = STK21/CIT (Homo sapiens, UniProt O14578); test: biochemical; conditions: read-out: % enzyme activity, 1 μM; Run 1, Run 2
Sequence of STK21/CIT (O14578 whole entry): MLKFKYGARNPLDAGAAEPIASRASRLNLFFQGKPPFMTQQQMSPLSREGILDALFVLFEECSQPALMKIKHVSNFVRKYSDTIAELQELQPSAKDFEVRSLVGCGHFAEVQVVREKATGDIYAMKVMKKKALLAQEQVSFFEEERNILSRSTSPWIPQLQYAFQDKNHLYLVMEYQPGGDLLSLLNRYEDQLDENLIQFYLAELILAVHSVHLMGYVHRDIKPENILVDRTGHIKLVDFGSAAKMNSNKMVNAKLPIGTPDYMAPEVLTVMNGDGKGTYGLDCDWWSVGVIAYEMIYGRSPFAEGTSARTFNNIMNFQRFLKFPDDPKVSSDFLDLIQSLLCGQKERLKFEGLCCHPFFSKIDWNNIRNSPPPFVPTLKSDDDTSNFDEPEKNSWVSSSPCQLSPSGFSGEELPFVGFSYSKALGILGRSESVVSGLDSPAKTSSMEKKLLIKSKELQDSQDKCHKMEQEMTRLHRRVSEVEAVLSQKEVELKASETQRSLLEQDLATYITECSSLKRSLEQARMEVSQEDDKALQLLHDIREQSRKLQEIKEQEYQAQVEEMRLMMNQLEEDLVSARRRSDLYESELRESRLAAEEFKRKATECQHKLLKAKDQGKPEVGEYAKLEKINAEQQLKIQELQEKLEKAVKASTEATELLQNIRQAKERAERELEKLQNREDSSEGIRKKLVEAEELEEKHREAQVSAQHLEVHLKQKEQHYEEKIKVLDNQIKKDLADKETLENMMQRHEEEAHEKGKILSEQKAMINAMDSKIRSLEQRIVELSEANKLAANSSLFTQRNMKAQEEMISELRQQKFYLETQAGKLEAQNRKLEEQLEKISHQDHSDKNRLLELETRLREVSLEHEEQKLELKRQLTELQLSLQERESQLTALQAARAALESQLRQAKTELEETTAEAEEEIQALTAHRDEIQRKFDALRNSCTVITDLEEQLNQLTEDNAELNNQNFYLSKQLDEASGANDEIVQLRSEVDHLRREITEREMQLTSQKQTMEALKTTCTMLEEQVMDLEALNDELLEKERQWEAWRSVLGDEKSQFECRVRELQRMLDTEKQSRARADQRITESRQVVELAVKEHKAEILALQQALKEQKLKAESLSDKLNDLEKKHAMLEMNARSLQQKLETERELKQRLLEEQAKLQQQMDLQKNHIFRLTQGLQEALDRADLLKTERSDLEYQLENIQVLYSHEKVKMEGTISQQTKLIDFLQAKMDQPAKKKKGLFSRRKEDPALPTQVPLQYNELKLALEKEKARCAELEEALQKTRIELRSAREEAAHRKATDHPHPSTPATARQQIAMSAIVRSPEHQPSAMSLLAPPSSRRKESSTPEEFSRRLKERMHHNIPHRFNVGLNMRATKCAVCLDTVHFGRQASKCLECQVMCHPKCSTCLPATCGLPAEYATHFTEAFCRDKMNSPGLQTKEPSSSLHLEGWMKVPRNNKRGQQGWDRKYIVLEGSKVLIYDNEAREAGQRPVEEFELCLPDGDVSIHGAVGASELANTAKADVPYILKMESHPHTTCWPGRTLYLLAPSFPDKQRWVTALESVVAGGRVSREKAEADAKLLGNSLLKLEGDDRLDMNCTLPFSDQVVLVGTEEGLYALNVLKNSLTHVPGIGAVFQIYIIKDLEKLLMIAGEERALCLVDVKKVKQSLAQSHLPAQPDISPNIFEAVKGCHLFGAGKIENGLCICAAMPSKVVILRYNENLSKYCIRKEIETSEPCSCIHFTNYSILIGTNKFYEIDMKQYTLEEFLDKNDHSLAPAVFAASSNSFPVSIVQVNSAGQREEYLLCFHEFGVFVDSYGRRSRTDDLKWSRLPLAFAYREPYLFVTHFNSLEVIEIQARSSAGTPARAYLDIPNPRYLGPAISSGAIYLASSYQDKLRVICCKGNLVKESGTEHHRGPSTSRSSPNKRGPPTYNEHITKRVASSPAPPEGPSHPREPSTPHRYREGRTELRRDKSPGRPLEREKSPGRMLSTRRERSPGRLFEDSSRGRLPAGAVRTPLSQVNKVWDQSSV

PAK5 = PAK5 (Homo sapiens, UniProt Q9P286); test: biochemical; conditions: read-out: % enzyme activity, 1 μM; Run 1, Run 2
Sequence of PAK5 (Q9P286 whole entry): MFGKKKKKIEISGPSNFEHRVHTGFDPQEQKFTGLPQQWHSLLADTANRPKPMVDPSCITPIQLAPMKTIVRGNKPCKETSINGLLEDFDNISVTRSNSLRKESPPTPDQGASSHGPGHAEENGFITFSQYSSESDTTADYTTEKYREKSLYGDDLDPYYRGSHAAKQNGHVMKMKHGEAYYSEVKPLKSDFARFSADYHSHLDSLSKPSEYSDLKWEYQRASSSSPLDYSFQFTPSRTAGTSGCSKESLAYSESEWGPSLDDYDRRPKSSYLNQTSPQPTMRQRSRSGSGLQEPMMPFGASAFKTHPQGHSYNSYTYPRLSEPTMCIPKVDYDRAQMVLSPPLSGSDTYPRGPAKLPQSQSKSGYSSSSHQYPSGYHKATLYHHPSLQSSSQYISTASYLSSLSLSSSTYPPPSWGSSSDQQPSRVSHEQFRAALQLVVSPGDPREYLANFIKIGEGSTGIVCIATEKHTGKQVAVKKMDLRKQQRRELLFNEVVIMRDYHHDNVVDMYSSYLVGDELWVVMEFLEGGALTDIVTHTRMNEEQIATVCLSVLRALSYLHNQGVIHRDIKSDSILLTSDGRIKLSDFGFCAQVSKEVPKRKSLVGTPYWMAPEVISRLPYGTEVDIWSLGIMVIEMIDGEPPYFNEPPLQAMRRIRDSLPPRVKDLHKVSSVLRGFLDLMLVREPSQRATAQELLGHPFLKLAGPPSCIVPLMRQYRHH

STK32C/YANK3 = STK32C/YANK3 (Homo sapiens, UniProt Q86UX6); test: biochemical; conditions: read-out: % enzyme activity, 1 μM; Run 1, Run 2
Sequence of STK32C/YANK3 (Q86UX6 whole entry): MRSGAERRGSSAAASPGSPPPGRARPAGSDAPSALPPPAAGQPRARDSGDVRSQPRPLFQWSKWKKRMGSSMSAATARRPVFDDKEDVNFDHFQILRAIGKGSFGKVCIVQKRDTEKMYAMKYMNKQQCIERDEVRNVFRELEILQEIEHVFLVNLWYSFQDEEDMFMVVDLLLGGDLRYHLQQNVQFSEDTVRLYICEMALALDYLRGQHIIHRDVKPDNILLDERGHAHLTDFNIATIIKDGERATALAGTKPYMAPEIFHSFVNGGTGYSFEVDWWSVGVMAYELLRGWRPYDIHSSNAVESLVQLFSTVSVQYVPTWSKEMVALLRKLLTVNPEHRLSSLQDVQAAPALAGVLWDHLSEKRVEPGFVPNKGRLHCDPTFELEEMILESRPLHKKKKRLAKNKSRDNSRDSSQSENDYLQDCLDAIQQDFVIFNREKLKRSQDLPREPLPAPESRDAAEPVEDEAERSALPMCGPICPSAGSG

TRKB = TRKB (Homo sapiens, UniProt Q16620); test: biochemical; conditions: read-out: % enzyme activity, 1 μM; Run 1, Run 2
Sequence of TRKB (Q16620 32-822): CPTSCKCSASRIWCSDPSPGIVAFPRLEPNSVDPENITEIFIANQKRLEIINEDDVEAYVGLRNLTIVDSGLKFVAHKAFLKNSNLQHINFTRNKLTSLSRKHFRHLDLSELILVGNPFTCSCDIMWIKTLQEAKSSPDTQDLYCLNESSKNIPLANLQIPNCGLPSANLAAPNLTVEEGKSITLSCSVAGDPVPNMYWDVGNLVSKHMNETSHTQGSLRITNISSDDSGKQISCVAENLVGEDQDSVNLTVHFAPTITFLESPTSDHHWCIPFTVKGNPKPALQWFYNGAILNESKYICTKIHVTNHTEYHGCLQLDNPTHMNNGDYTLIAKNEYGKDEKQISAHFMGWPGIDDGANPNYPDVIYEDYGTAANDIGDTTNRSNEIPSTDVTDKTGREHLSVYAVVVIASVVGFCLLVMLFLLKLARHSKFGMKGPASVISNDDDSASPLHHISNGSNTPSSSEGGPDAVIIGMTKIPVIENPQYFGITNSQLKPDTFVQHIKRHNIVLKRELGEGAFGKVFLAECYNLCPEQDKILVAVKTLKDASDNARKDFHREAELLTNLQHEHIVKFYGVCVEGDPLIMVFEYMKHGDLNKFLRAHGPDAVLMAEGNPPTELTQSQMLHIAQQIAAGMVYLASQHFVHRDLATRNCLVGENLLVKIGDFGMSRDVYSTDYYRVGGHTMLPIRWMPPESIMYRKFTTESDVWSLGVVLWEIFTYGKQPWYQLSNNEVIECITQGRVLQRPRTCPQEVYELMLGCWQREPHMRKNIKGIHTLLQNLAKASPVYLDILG

PKD2/PRKD2 = molecular target: T4, PKD2/PRKD2 (Homo sapiens, UniProt Q9BZL6); conditions: 1 μM; Run 1, Run 2
T4 sequence (Q9BZL6 1-878): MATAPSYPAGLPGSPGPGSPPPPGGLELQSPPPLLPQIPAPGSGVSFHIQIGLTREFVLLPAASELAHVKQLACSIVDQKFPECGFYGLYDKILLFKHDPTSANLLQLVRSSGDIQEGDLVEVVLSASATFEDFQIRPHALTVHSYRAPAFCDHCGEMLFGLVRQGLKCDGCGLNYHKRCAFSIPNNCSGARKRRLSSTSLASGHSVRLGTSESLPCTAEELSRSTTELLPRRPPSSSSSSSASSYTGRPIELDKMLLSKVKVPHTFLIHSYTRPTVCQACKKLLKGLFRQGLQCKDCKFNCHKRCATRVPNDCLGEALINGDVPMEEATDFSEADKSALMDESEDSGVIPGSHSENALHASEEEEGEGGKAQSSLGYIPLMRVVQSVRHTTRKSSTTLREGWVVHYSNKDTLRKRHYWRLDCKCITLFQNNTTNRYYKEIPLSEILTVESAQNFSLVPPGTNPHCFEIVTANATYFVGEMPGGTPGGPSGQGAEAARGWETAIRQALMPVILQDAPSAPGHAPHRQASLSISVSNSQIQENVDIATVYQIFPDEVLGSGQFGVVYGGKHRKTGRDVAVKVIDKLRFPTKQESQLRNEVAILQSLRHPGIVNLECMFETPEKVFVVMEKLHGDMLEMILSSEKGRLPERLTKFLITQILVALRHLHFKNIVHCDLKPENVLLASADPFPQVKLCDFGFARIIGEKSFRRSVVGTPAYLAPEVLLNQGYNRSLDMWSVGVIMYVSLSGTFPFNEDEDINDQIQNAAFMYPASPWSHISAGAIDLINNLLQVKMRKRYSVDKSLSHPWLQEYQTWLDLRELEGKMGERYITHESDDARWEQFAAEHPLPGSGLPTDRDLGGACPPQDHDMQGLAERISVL

| Compound | remaining activity at 1 µM (PKG2/PRKG2) | remaining activity at 1 µM (Aurora C) | remaining activity at 1 µM (NEK8) | remaining activity at 1 µM (STK21/CIT) | remaining activity at 1 µM (PAK5) | remaining activity at 1 µM (STK32C/YANK3) | remaining activity at 1 µM (TRKB) | % enzyme activity (PKD2/PRKD2) |
| --- | --- | --- | --- | --- | --- | --- | --- | --- |
| COc1cc(-c2cncc(-c3ccc(N4CCN(C)CC4)cc3)c2C)cc(F)c1C(N)=O [Compound 26a, 2-Fluoro-6-methoxy-4-(4-methyl-5-(4-(4-methylpiperazin-1-yl)phenyl)pyridin-3-yl)benzamide] | 98.9% | 105% | 98.4% | 88.8% | 94.6% | 86.8% | 100% | 95.72% |
| COc1cc(-c2cncc(-c3ccc(N4C[C@@H](C)N(C)[C@@H](C)C4)cc3)c2C)cc(F)c1C(N)=O [Compound 26c, 2-Fluoro-6-methoxy-4-(4-methyl-5-(4-((3R,5S)-3,4,5-trimethylpiperazin-1-yl)phenyl)pyridin-3-yl)benzamide] | 98.5% | 100% | 109% | 89.1% | 97.3% | 93.3% | 99% | 98.89% |
